Experimental data reported in US20150148234A1, “HERBICIDE-RESISTANT SUNFLOWER PLANTS WITH MULTIPLE HERBICIDE RESISTANT ALLELES OF AHASL1 AND METHODS OF USE” (NIDERA S.A., priority 2013, published 2015).
Several values for one entry are separate records, joined by “and”; a condition that tells them apart may be missing. Equal values may be shown once. Marks after values point to notes of the source that are not given here.

How the values were obtained:
Assay in all cases: metsulfuron whole plant greenhouse test (Example 5)
Format in all cases: in vivo
[1] = tested on: sunflower cmsGM40xBTSu-R1, A122T/P197L; conditions: 14 DAT; for Dry Matter accumulation (DMA) / Mean Height Reduction (PH): percentage of untreated control
Protocol: (§1) Seeds were sown in Petri dishes and, after germination, plantlets were transplanted into 10 cm pots containing potting media consisting of equal parts of vermiculite, soil, and sand. Plants were grown in the greenhouse under natural light conditions supplemented with 400 W sodium halide lamps to provide a 16 hr daylength. Day/night temperatures were 25 and 20° C., respectively. At the V2-V4 stage (Schneiter & Miller, 1981) 20 plants of each genotype were randomly assigned to each treatment consisting of three metsulfuron methyl doses (0 or no treatment, 5 g ai/ha or a 1× rate, and 10 g ai/ha or a 2× rate). A zero-time biomass determination was also conducted. The experiment was arranged as a randomized complete block design (RCBD) with a full factorial arrangement of treatments and 20 replications (sunflower line×treatment).
(§2) For the zero-time dried weight determination, ten plants of each genotype were cut at the cotyledonal node on the day of herbicide application and dried at 60° C. for 48 hr. The rest of the plants were maintained for 14 days after herbicide treatment (DAT) and their height, Phytotoxicity Index (PI) and above ground dry biomass were recorded. Height was determined as the distance between the cotyledonal node and the apex of each plant. The above ground biomass data for each line was converted to biomass accumulation after application by subtracting the appropriate average zero-time biomass from each sample. Height and dry biomass were converted to a percentage of the untreated control for each line to allow direct comparisons between groups.
(§3) The data was subjected to an ANOVA and the means were compared by an LSD test.

[2] = tested on: sunflower cmsGM40xL4, A122T/A122T; conditions: 14 DAT; for Dry Matter accumulation (DMA) / Mean Height Reduction (PH): percentage of untreated control
Protocol: as §1, §2, §3

sunflower line B770, WT = conditions: 14 DAT
Protocol: as §1, §2, §3

[3] = tested on: sunflower line BTSu-R1, P197L/P197L; conditions: 14 DAT, percentage of untreated control
Protocol: as §1, §2, §3

[4] = tested on: sunflower line GM1606, A122T/A122T; conditions: 14 DAT; for Dry Matter accumulation (DMA) / Mean Height Reduction (PH): percentage of untreated control
Protocol: as §1, §2, §3

[5] = tested on: sunflower line GM40, A122T/A122T; conditions: 14 DAT; for Dry Matter accumulation (DMA) / Mean Height Reduction (PH): percentage of untreated control
Protocol: as §1, §2, §3

[6] = tested on: sunflower line L4, A122T/A122T; conditions: 14 DAT; for Dry Matter accumulation (DMA) / Mean Height Reduction (PH): percentage of untreated control
Protocol: as §1, §2, §3

[7] = 2X (10 g ai./ha), percentage of untreated control

COC(=O)c1ccccc1S(=O)(=O)NC(=O)Nc1nc(C)nc(OC)n1 [metsulfuron]
Phytotoxicity Index (PI) (0-9) ([1]; 1X (5g ai./ha)): 0.00 ^a
Dry Matter accumulation (DMA) ([1]; 1X (5g ai./ha)): 74.4% and 74.36 ^c %
Mean Height Reduction (PH) ([1]; 1X (5g ai./ha)): 77.04 ^b %
Dry Matter accumulation (DMA) ([1]; 2X (10 g ai./ha)): 72.66 ^c %
Mean Height Reduction (PH) ([1]; 2X (10 g ai./ha)): 62% and 61.99 ^b %
Phytotoxicity Index (PI) (0-9) ([2]; 1X (5g ai./ha)): 8.67 ^d
Dry Matter accumulation (DMA) ([2]; 1X (5g ai./ha)): 19.90 ^a %
Mean Height Reduction (PH) ([2]; 1X (5g ai./ha)): 22.45 ^a %
Phytotoxicity Index (PI) (0-9) ([2]; 2X (10 g ai./ha)): 8.82 ^cd
Dry Matter accumulation (DMA) ([2]; 2X (10 g ai./ha)): 18.23 ^a %
Mean Height Reduction (PH) ([2]; 2X (10 g ai./ha)): 20.56 ^a %
Phytotoxicity Index (PI) (0-9) (sunflower line B770, WT; 1X (5g ai./ha)): 8.50 ^bc
Dry Matter accumulation (DMA) (sunflower line B770, WT; 1X (5g ai./ha), percentage of untreated control): 28.43 ^b %
Phytotoxicity Index (PI) (0-9) (sunflower line B770, WT; 2X (10 g ai./ha)): 9.00 ^d
Dry Matter accumulation (DMA) (sunflower line B770, WT; [7]): 28.77 ^b %
Mean Height Reduction (PH) (sunflower line B770, WT; [7]): 18.20 ^a %
Dry Matter accumulation (DMA) ([3]; 1X (5g ai./ha)): 88% and 88.1% and 88.10 ^d %
Plant height, % of untreated control ([3]; 1X (5g ai./ha)): 79.01 ^b %
Dry Matter accumulation (DMA) ([3]; 2X (10 g ai./ha)): 77% and 76.69 ^c %
Plant height, % of untreated control ([3]; 2X (10 g ai./ha)): 80.85 ^c %
Phytotoxicity Index (PI) (0-9) ([4]; 1X (5g ai./ha)): 8.70 ^d
Dry Matter accumulation (DMA) ([4]; 1X (5g ai./ha)): 30.39 ^b %
Mean Height Reduction (PH) ([4]; 1X (5g ai./ha)): 21.55 ^a %
Phytotoxicity Index (PI) (0-9) ([4]; 2X (10 g ai./ha)): 9.00 ^d
Dry Matter accumulation (DMA) ([4]; 2X (10 g ai./ha)): 20.45 ^a %
Mean Height Reduction (PH) ([4]; 2X (10 g ai./ha)): 21.70 ^a %
Phytotoxicity Index (PI) (0-9) ([5]; 1X (5g ai./ha)): 9.00 ^d
Dry Matter accumulation (DMA) ([5]; 1X (5g ai./ha)): 25.73 ^ab %
Mean Height Reduction (PH) ([5]; 1X (5g ai./ha)): 21.39 ^a %
Phytotoxicity Index (PI) (0-9) ([5]; 2X (10 g ai./ha)): 9.00 ^d
Dry Matter accumulation (DMA) ([5]; 2X (10 g ai./ha)): 20.69 ^a %
Mean Height Reduction (PH) ([5]; 2X (10 g ai./ha)): 21.17 ^a %
Phytotoxicity Index (PI) (0-9) ([6]; 1X (5g ai./ha)): 8.25 ^b
Dry Matter accumulation (DMA) ([6]; 1X (5g ai./ha)): 25.40 ^ab %
Mean Height Reduction (PH) ([6]; 1X (5g ai./ha)): 19.47 ^a %
Phytotoxicity Index (PI) (0-9) ([6]; 2X (10 g ai./ha)): 8.5 ^c
Dry Matter accumulation (DMA) ([6]; 2X (10 g ai./ha)): 18.80 ^a %
Mean Height Reduction (PH) ([6]; 2X (10 g ai./ha)): 18.73 ^a %
